The text below walks through data of ChEMBL document CHEMBL1201862, “PubChem BioAssay data set” (2004).

For assay [1], the target named is T1, Heat shock factor protein 1 (Mus musculus, UniProt P38532).
T1 sequence (P38532 whole entry): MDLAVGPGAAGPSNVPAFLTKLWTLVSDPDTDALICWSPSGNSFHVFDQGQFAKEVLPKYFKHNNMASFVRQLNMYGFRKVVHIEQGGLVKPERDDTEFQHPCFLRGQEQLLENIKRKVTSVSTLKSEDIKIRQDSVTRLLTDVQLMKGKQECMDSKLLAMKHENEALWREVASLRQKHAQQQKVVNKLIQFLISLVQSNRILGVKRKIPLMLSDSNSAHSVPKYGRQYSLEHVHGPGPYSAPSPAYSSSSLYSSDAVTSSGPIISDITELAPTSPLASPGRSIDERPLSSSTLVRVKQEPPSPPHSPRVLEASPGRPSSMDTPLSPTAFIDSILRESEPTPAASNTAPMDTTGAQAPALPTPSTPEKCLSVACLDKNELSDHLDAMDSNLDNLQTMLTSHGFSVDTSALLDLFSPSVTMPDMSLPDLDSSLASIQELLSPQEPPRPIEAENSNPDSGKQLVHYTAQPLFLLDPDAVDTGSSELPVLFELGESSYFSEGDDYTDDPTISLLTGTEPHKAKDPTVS
As to the kind of experiment: HSF1 potentiators in luciferase reporter cells, confirmation, cell-based, NIH3T3, luminescence, dose retest (AID 435004).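 Also: stress induced by proteasome inhibitor MG132 added 30 min after compound; luciferase reporter driven by HSF1 response element in NIH3T3 cells; actives raise luminescence as potentiators of the MG132 stress response.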 The assay is classed as functional.

A short description of assay [2]: Luminescence Cell-Based Dose Retest to Confirm Inhibitors of Cancer Stem Cells. [Related pubchem assays (depositor defined):AID2717, AID2721]. The assay is classed as functional, Homo sapiens. As to conditions: Homo sapiens.
Assay [3] has as its target T1, Heat shock factor protein 1. As to the kind of experiment: inhibition of MG132-induced HSE-luciferase signal, confirmation, cell-based, NIH3T3, luminescence, dose retest (AID 2382).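 Also: NIH3T3 fibroblasts with HSF1-driven luciferase reporter stressed by proteasome inhibitor MG132; luminescence from HSF1-driven luciferase expression after 8 hours of MG132 stress.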 The assay is classed as functional.
Assay [4] has as its system Streptococcus sp. 'group A'. As to the kind of experiment: growth inhibition of control SK(-) GAS strain, dose response, counter-screen for streptokinase expression inhibitor project, luminescence, kanamycin, BacTiterGlo, confirmation (AID 1900). It counts as functional, organism-based. Conditions: read-out: EC50.
Another assay has as its target T2, Streptokinase A (Streptococcus pyogenes serotype M1, UniProt P10520).
T2 sequence (P10520 whole entry): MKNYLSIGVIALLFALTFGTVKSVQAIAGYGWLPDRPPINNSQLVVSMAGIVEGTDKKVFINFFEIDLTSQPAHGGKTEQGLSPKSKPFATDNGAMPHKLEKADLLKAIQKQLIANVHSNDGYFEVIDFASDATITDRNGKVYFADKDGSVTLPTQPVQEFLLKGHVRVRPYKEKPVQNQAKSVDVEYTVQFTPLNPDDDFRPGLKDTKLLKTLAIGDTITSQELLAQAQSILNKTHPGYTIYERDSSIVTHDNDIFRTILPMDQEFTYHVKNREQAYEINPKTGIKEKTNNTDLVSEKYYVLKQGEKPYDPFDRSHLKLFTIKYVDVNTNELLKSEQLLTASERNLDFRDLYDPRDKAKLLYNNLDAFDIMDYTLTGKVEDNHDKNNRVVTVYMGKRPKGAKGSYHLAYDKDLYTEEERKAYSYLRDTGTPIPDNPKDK
As to the kind of experiment: S. pyogenes streptokinase expression inhibitors, potency, dose response, plasminogen activation absorbance, OD405 (AID 1914).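 Also: secreted streptokinase activity via plasminogen activation per viability signal from cell pellet.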 It counts as functional, Streptococcus pyogenes M1 GAS.

Another assay has as its system Streptococcus. As to the kind of experiment: Group A Streptococcus viability loss, dose response, counter-screen for streptokinase expression inhibitor project, luminescence, BacTiterGlo (AID 1915).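 Also: potency for reduction of bacterial viability or growth.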 The assay is classed as functional, organism-based. In general terms: Counterscreens check selectivity or assay interference.
A further assay has as its target Cytochrome P450 2C19 (Homo sapiens, UniProt P33261). As to the kind of experiment: Cytochrome panel assay with activity outcomes. Panel member name: p450-cyp2c19 Compounds with AC50 equal or less than 10 uM are considered active. The assay is classed as functional. As to conditions: read-out: AC50.
For the next assay, the target named is Cytochrome P450 2C9 (Homo sapiens, UniProt P11712).
For the next assay, the target named is Cytochrome P450 3A4 (Homo sapiens, UniProt P08684).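 Also: CYP3A4 tested as one member of a cytochrome P450 panel screen.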
Assay [5] is described as follows: inhibitors of firefly luciferase expression or activity, dose response, H4 neuroglioma cells, luminescence (AID 1990). The assay is classed as functional, cell-based.
Assay [6] can be described thus: Luminescence Cell-Based Dose Response HTS to Identify Inhibitors of 5'UTR Stem-Loop Driven Prion Protein mRNA Translation in H4 Neuroglioblastoma Cells. [Related pubchem assays: 1827 (Project Summary), 1813 (Primary HTS)]. It counts as functional.
A short description of assay [7]: inhibitors of SNCA 5'UTR-driven reporter translation, confirmation, H4 neuroglioma cells, luminescence (AID 1988). The assay is classed as functional, cell-based.
Assay [8] in a line: inhibitors of intracellular T. cruzi replication, confirmation, NIH3T3 host cells, beta-gal luminescence (AID 2044).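 Also: intracellular parasites grown in NIH/3T3 mouse fibroblasts as host cells; luminescent beta-galactosidase reporter signal from transgenic T. cruzi replicating inside host cells; inhibitors lower the luminescence signal.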 The assay is classed as functional, cell-based.
Assay [9] in a line: cytotoxicity toward NIH3T3 fibroblasts, dose response, counter-screen, cell-based, ATP luminescence, mouse fibroblasts (AID 2010).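 Also: cells exposed to compound for about 90 hours before reading.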 The assay is classed as functional.

Activity calls are given as the source filed them. Some results are limits rather than exact numbers.

Sequence of Cytochrome P450 3A4 (P08684 whole entry): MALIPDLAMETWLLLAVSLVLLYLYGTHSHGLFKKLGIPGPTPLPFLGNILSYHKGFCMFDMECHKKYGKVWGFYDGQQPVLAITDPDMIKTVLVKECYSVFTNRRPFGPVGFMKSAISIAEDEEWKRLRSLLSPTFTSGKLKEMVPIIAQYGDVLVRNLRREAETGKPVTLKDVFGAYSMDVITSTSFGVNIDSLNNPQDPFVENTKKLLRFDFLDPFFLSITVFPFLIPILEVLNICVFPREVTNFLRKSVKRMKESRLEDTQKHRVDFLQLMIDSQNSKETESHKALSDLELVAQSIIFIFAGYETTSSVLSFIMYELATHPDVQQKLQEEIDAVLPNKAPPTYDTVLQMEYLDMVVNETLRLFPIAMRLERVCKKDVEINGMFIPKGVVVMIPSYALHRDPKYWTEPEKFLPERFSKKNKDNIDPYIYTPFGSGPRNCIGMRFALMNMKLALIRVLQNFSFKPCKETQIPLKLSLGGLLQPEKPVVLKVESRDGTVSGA
Sequence of Cytochrome P450 2C9 (P11712 whole entry): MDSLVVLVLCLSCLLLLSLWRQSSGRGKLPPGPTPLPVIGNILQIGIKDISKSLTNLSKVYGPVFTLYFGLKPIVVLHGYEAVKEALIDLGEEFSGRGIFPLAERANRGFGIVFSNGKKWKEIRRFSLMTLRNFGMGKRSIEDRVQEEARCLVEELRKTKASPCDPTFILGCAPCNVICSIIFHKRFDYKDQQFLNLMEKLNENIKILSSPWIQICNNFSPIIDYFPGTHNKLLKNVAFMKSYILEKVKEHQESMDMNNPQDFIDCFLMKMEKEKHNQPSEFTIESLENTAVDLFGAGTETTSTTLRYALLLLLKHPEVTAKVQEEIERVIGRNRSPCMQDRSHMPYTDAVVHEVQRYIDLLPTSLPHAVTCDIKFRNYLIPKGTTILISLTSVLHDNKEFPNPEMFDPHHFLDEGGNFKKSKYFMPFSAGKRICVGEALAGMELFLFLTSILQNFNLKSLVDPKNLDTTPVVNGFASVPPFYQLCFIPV
Sequence of Cytochrome P450 2C19 (P33261 whole entry): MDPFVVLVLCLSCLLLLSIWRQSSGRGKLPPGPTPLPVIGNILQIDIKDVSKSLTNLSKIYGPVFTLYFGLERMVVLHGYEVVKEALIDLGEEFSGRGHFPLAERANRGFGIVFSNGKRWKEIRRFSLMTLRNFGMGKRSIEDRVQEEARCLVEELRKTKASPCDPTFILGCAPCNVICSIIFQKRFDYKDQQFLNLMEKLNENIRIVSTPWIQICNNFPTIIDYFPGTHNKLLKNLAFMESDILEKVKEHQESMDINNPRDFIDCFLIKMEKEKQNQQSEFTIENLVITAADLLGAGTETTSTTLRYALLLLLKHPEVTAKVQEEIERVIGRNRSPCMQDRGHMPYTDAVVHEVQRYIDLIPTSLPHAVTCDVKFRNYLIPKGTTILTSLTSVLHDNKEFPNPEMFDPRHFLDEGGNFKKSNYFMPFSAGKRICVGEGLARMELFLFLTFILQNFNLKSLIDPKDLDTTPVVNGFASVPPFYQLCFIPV

For `COc1ccc(CNC(=O)Oc2ccccc2)cc1Cl`, the EC50 – broadly, the concentration that produces a half-maximal response – in [1] is 62.3 µM (active).

Take `S=C(Nc1cccc(Cl)c1)N(CCCN1CCCC1)Cc1cccn1Cc1ccc(Cl)cc1`: the AC50 (commonly the concentration at which the activity in the assay is half-maximal) in assay [2] is 6.16 µM (active). For the same compound, the EC50 in assay [1] was > 120 µM (inactive).

In the case of `CS(=O)(=O)c1ccc(NC(=O)c2ccc3c(c2)S(=O)(=O)N=C2CCCCCN23)cc1`, in assay [3], the EC50 is recorded as > 195 µM (not active).

With `O=C(Cn1cc([N+](=O)[O-])cn1)NCC1CCCO1` (configuration not stated), the EC50 in assay [3] was > 195 µM (not active).

Consider `O=C(CSc1nc(O)c2cnn(-c3ccccc3)c2n1)N1N=C(c2cccs2)CC1c1ccc(F)cc1` (configuration not stated), for which the EC50 in [4] is 3.15 µM (active); at Streptokinase A, > 150 µM (not active); in the assay on Streptococcus, 7.18 µM (active).

Regarding `CCOC(=O)C[n+]1c(C)csc1C`, the EC50 in assay [3] was > 195 µM (not active).

Regarding `Cn1c(=O)c2cn(-c3ccccc3)cc2n(C)c1=O`, the AC50 at Cytochrome P450 2C19 is 17.8 µM (inconclusive); on Cytochrome P450 2C9, 25.1 µM (inconclusive).

As for `O=C(NCc1ccco1)c1ccccc1-c1ccc(C(F)(F)F)cc1`, the EC50 in [3] was > 195 µM (not active).

Turning to `NC(=O)Cc1ccc2c(c1)[nH]c1ccccc12`, in [1], the EC50 was > 260 µM (inactive).

As to `CC(=O)[C@]1(O)CC[C@@H]2[C@H]3C[C@@H](C)C4=CC(=O)CC[C@@]4(C)[C@H]3[C@@H](O)C[C@]21C`, the AC50 at Cytochrome P450 3A4 is 3.98 µM (inconclusive); on Cytochrome P450 2C9, 7.94 µM (inconclusive).

For `C=CCn1c(S)nnc1-c1cccc2ccccc12`, the EC50 in assay [3] is recorded as > 195 µM (not active).

As for `Cc1cc(C)c(C2C3=C(Nc4c2c(C)nn4-c2ccccn2)c2ccccc2C3=O)c(C)c1` (configuration not stated), the EC50 in [5] was 17 µM (active); in assay [4], 7.61 µM (active); in assay [6], > 120 µM (not active); in assay [7], 19.9 µM (active); at Streptokinase A, 22.2 µM (active); in the assay on Streptococcus, 128 µM (active).

`O=C(CCn1nc(-c2ccc(Cl)cc2)ccc1=O)N1CCOCC1`: the AC50 is 25.1 µM (inconclusive) on Cytochrome P450 3A4 and 10 µM (inconclusive) on Cytochrome P450 2C9.

As to `COc1ccccc1CNC(=O)C(C)NS(=O)(=O)c1ccc(Br)cc1` (configuration not stated), the EC50 in assay [3] is > 195 µM (not active).

As to `CCN(CC)S(=O)(=O)c1cccc(C(=O)N[C@H](C(=O)OCC(=O)NC(=O)NC)C(C)C)c1`, the AC50 was 14.1 µM (inconclusive) on Cytochrome P450 3A4 and 0.708 µM (inconclusive) on Cytochrome P450 2C9.

Regarding `COc1cccc(C(=O)c2c[nH]c(C(=O)NCc3ccco3)c2)c1`, the EC50 in assay [3] was 19.9 µM (active).

Take `CCOC(=O)c1c[nH]nc1C(F)(F)F`: the EC50 in assay [1] is > 260 µM (inactive).

`C=CCNC(=S)Nc1sc2c(c1C#N)CCCC2`: in assay [3], the EC50 is listed as > 195 µM (not active).

Consider `COCCNC(=O)Cn1cnc2c1c(=O)n(C)c(=O)n2C`, for which, in assay [1], the EC50 is > 260 µM (inactive).

As for `CC(C)c1ccc(C(=O)CC2(O)C(=O)N(CN3CCOCC3)c3ccccc32)cc1` (configuration not stated), at Cytochrome P450 2C9, the AC50 is 12.6 µM (inconclusive).

In the case of `O=C(NCCc1cccc(Cl)c1)c1cc2ccccc2oc1=O`, the EC50 in [1] is > 260 µM (inactive).

For `CCOC(=O)N1CCN(C(=O)C2CCN(Cc3ccc(OC)cc3OC)CC2)CC1`, the EC50 in [3] is > 195 µM (not active).

As for `Cc1ccc(N2C(=O)N(CC(=O)NC(N)=O)C(=O)C2C)cc1` (configuration not stated), in assay [3], the concentration for a half-maximal effect (EC50) was > 195 µM (not active).

For the compound `O=C1c2ccccc2C(O)N1c1ccccc1` (configuration not stated), in assay [3], the EC50 is > 195 µM (not active).

Take `C/C(Cl)=C/Cc1c(C)nc2ccc(C)cc2c1O`: the EC50 is 324 nM (active) in assay [8], > 30 µM (not active) in [9] and > 260 µM (inactive) in assay [1].

With `Cc1oc2ccc(OCc3c(F)cccc3Cl)cc2c1C(=O)O`, the EC50 in assay [3] was > 195 µM (not active).

Take `CCCCOCCCN1CC(=O)N2[C@@H](Cc3c([nH]c4ccccc34)C2(C)C)C1=O`: in assay [1], the EC50 is > 260 µM (inactive).

Regarding `COc1ccc(Oc2nc(-c3ccccn3)nc3ccccc23)cc1`, the EC50 is 17.1 µM (active) in assay [4], > 150 µM (not active) on Streptokinase A and > 150 µM (not active) with Streptococcus.

As to `CCc1ccc(CN(C)Cc2nc(-c3cccc(Cl)c3)no2)nc1`, the EC50 was 18.4 µM (active) in [4], > 150 µM (not active) at Streptokinase A and > 150 µM (not active) in the assay with Streptococcus.

With `O=C(Cn1nc(-c2ccccc2)ccc1=O)N1CCCCC1`, in [3], the EC50 is > 195 µM (not active).

For the compound `COc1ccc(CNCC(O)COc2ccc(C(C)(C)c3ccccc3)cc2)cc1` (configuration not stated), in [2], the AC50 is 3.38 µM (active). Moreover, the EC50 in assay [1] is > 260 µM (inactive).

As for `CC(C)[C@@]1(NC(=O)[C@@H]2C[C@H]3c4cccc5[nH]cc(c45)C[C@@H]3N(C)C2)O[C@]2(O)[C@H]3CCCN3C(=O)CN2C1=O`, the half-maximal activity concentration (AC50) is 5.01 µM (inconclusive) on Cytochrome P450 2C19 and 6.31 µM (inconclusive) on Cytochrome P450 2C9.

Regarding `CSCC[C@H](NC(=O)N1CCn2c1nc1ccccc12)C(=O)NCc1ccc(F)cc1`, the EC50 in assay [1] is > 260 µM (inactive).

Turning to `N#Cc1cnn2c(=O)c3c([nH]c12)CCCC3`, the AC50 on Cytochrome P450 2C9 is 11.2 µM (inconclusive).

Take `CCCn1nc2cc(C(=O)NCc3ccc(C)cc3)ccc2c1OC`: the AC50 on Cytochrome P450 2C19 is 22.4 µM (inconclusive); on Cytochrome P450 2C9 it was 20 µM (inconclusive).

For the compound `CC[C@H]1C2=C3C(CC[C@H]4C(OCc5ccc(F)cc5C(F)(F)F)OC[C@](C)([C@@H]34)N(C(=O)OC(C)(C)C)C2)C(COC(C)=O)C1COC(C)=O` (some centres not stated), the AC50 on Cytochrome P450 2C19 was 15.8 µM (inconclusive); on Cytochrome P450 3A4, 2.51 µM (inconclusive); on Cytochrome P450 2C9, 31.6 µM (inconclusive).

As to `CC(C)(C)c1ccc(C(=O)N2CCN(C(=O)c3ccco3)CC2)cc1`, the EC50 (in [4]; on Streptokinase A; in the assay with Streptococcus) was > 150 µM (not active) each time.

With `COCC1CCN(C(=O)c2ccc3oc(Cc4ccccc4)nc3c2)C1` (configuration not stated), the EC50 (in [4]; on Streptokinase A; in the assay on Streptococcus) was > 150 µM (not active) each time.

`Cc1cccc(Nc2nc(N)nc(CN3CCN(c4ccccc4F)CC3)n2)c1`: the EC50 in assay [4] was 7.31 µM (active); at Streptokinase A it was > 150 µM (not active); with Streptococcus, 45.8 µM (active).

As for `COc1ccc(-c2csc(NC(=O)c3ccc(C(C)(C)C)cc3)c2C(=O)O)cc1`, the EC50 in assay [5] was 14.5 µM (active); in [4], 1.75 µM (active); in assay [6], 4.3 µM (active); in assay [7], 11.5 µM (active); on Streptokinase A, 3.12 µM (inconclusive); in the assay on Streptococcus it was 7.24 µM (active).

Consider `CCc1n[nH]c2c1C1(CCN(C(=O)OCc3ccccc3)CC1)C(C#N)=C(N)O2`, for which the EC50 in assay [1] is 33.9 µM (active).

As to `N/C(S)=N/CCC[C@@H](N)C(=O)O`, the half-maximal activity concentration (AC50) at Cytochrome P450 3A4 was 0.2 µM (inconclusive); at Cytochrome P450 2C9, 15.8 µM (inconclusive).
